Molecular target: T1, SFV nsP1 K231R+K300E (Semliki forest virus, UniProt P08411, K231R/K300E)
T1 sequence (P08411 1-537 K231R/K300E): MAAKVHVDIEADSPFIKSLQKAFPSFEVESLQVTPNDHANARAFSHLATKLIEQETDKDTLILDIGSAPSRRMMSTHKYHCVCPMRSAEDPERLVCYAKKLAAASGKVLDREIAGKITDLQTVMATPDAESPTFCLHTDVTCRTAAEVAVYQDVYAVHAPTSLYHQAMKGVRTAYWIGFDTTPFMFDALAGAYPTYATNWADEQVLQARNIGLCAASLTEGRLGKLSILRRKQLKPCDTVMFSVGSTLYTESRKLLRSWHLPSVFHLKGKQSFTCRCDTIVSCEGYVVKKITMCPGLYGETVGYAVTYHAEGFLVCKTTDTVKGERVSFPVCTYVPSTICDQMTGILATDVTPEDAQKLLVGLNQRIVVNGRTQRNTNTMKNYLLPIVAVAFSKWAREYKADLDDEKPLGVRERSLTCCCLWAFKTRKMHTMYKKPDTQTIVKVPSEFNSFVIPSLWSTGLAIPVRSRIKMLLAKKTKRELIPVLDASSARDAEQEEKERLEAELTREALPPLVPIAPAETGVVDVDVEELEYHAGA
Assay type: biochemical

Structure (SMILES): Nc1ncnc2c1ncn2C1C(F)=C(CCO)C(O)C1O (stereo not shown) [FHNA, 6′-fluoro-homoneplanocin A]
- Response of mutant vs wt SFV nsP1 to treatment (50 μM to 1 mM, standard conditions): no difference between wt and mutant SFV nsP1 proteins
- Further reduction in signal in the presence of NAD+ (1 mM compound + 1 mM NAD+, absence of DTT): about 6%
- Reduction of the signal (1 mM compound + 1 mM NAD+, nonreducing conditions): 25%
- Reduction in signal (1 mM, nonreducing conditions (absence of DTT)): about 20%
